How the values were obtained:
[1] = tested on: GNS cells (GBM-derived neural stem cells); experiment: Secondary screen / dose response curve, Alamar Blue cell viability, five days; assay type: cell-based, human; conditions: for IC50: six GNS and four NS lines, IC50 based on approximate observed value, read-out: potency (IC50), growth inhibition of GNS cells
Description: (§1) GNS and NS lines were grown as an adherent monolayer culture in serum free medium as described previously (Pollard et al. 2009. Cell stem cell 4, 568-580). Primary tumour cells were freshly dissociated from the patient sample in artificial cerebrospinal fluid followed by treatment with an enzyme cocktail at 37° C. (Singh et al. 2003. Cancer research 63, 5821-5828). BJ fibroblast, Daoy and C8-D1A and U-2 0S (ATCC) were maintained in DMEM with 10% FBS.
(§2) Cells were seeded in laminin-coated 384 well plates at a density of 2000 cells per well. Compounds were added at a concentration of approximately 5 μM and incubated with cells for five days at 37° C. Cell viability was assessed by measuring Alamar Blue incorporation according to the manufacturer's protocol (Invitrogen). Percent growth inhibition was calculated relative to the control DMSO wells.
(§3) The potency and selectivity of hits from the primary screen was tested in 8-point two-fold dilution series ranging from 50 μM-0.39 μM concentrations with more lines of GNS, NS and fibroblast. Experimental conditions were the same as in primary screen. IC50 was calculated based on an approximate observed value. Fold selectivity was calculated as IC50 of BJ/IC50 of any GNS cells with lowest IC50.

DRD4 receptor = target: T1, DRD4 receptor (Homo sapiens, UniProt P21917); experiment: cAMP assay (ELISA-based) in GNS (G362) cells; assay type: cell-based; conditions: pretreatment 30 μM for 15 minutes, then forskolin 30 μM
T1 construct: endogenous in cells; host or cells: GNS line G362 (patient-derived glioblastoma neural stem cells)
T1 sequence (P21917 1-419): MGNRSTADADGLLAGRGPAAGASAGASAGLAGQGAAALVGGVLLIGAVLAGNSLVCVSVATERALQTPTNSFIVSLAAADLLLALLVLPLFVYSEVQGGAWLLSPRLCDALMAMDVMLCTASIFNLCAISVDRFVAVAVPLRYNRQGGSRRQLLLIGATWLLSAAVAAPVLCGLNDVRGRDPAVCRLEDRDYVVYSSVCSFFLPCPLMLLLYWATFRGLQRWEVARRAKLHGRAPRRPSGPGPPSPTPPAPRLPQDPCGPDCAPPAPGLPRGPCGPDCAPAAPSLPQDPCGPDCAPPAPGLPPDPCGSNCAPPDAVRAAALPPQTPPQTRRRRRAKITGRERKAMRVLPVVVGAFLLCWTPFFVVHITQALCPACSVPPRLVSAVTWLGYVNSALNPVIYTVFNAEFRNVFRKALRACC
Description: cAMP levels were measured with an ELISA-based cAMP assay kit purchased from Cell Signaling (#4439). GNS (G362) cells were seeded overnight in a 96 well plate and treated with forskolin (30 μM) for 15 minutes, or pretreated with DRD4 agonist A412997 (30 μM) for 15 minutes followed by forskolin treatment. Cells were lysed and processed as per manufacturer's protocol.

[2] = tested on: GNS cells (G411 and G362); experiment: Autophagy markers (LC3B, p62) by western blot and immunofluorescence; assay type: cell-based, human; conditions: for levels of LC3B-II: L-741,742 10 μM, PNU 96415E 25 μM, G411 and G362; for LC3-II levels in the presence of chloroquine compared to control: chloroquine 30 μM, 48 h, G411; for autophagy substrate p62: treated GNS cells (G411)
Description: Western blots were performed using the following antibodies; anti-DRD4 antibody at 1:750 (Millipore# MABN125), anti-activated MAPK at 1:2500 (Promega#V803A), anti-ERK1/2 at 1:2000 (Promega#V114A), anti-βactin at 1:10,000 (Sigma), anti-LC3B at 1:1000 (Cell Signaling #3868), anti-p62 at 1:1000 (BD Bioscience), anti-LAMP1 at 1:2000 (Developmental Studies Hybridoma Bank), anti-mono and polyubiquitinylated protein conjugates (FK2) at 1:1000 (Enzo Life Sciences).

[3] = tested on: freshly isolated primary GBM patient tumour cells; experiment: Primary in vitro limiting dilution assay (LDA), neurosphere formation; assay type: cell-based, human; conditions: L-741,742 10 μM, PNU 96415E 25 μM, 14 days, n=3 patient tumours
Description: (§4) Limiting dilution assay was performed as described previously (Tropepe et al., 1999. Developmental Biology 208, 166-188). Primary tumours were dissociated into single cell suspension and seeded into a 96-well plate with 10 point-2 fold serial dilution starting from 2000 cells to 4 cells/well, 6 wells for each dilution per plate. Each well was scored for neurosphere formation after 14 days of incubation. Percent of wells not containing spheres for each cell density was calculated and plotted against the cells per well, regression lines were plotted and x-intercept value at 0.37 was calculated at 95% confidence interval using Sigma Plot, which gives the number of cells required to form at least one neurosphere.

[4] = tested on: ERK1/2 phosphorylation in GNS (G362) cells; experiment: Phospho-kinase antibody array; assay type: cell-based, human; conditions: L-741,742 10 μM, PNU 25 μM, 24 h
Description: A human phospho-kinase antibody array was purchased from R&D systems (Cat# ARY003). This array contains capture antibodies for 43 kinases in duplicate on nitrocellulose membrane. GNS (G362) and NS (hf5205) lines were treated with L-741,742 (10 μM) and PNU 96415E (25 μM) along with a DMSO control for 24 h, and cells were then processed according to the manufacturer's protocol. Signal intensity was quantified using ImageJ.

G362 cells = experiment: Combination/synergy screen with temozolomide, alamar blue; assay type: cell-based, human; conditions: five days, COMPUSYN, CI <1 indicates synergism
Description: (§5) 2000 GNS cells (G362 and G481) were seeded in a 96 well plate and treated with a combination of 6-point 2-fold dose series of either L-741,742 (6.25 μM-0.39 μM) or PNU 96415E (25 μM-1.56 μM) with 10-point 2-fold dose series of temozolomide (100 μM-0.39 μM) in 60 point combination doses. The cells were incubated with a combination of the two drugs for five days and then checked for cell viability using the alamar blue assay. Combination index (CI) plot and CI value was calculated for 5 point dose series in each combination using the programme COMPUSYN. Data points taken for COMPUSYN analysis are temozolomide (100, 50, 25, 12.5 and 6.25 μM) in combination with either L-741,742 (6.25, 3.12, 1.56, 0.78 and 0.39 μM) or PNU 96415E (25, 12.5, 6.25, 3.12 and 1.56 μM).

G481 cells = experiment: as above; assay type: cell-based, human; conditions: five days, COMPUSYN, CI <1 indicates synergism
Description: as §5

G411 and G362 cells = experiment: Cell cycle analysis by flow cytometry of DNA content; assay type: cell-based, human; conditions: L-741,742 10 μM, PNU 96415E 25 μM, time dependent
[5] = tested on: colony forming cells of in vivo treated tumours; experiment: In vitro LDA of in vivo treated xenograft tumours; set-up: species or system mouse; conditions: tumours treated in vivo 20 mg/kg i.p.; vehicle treated tumours 1 in every 11 cells
Description: All mouse procedures were approved by the Hospital for Sick Children's Animal Care Committee. To validate the in vivo effect of L-741,742 and PNU 96415E, 2×10^5 GNS cells in 200 μl of PBS and matrigel (1:1) were injected subcutaneously into flanks of non-obese diabetic/severe combined immunodeficient (NOD/SCID) female mice. 8 mice (2 tumours per mouse except for one mouse in control group that has one tumour) were maintained for each group; control (15 tumours), L-741,742 (16 tumours) and PNU 96415E (16 tumours). L-741,742 and PNU 96415E were dissolved in 40% 2 hydroxy β-cyclodextrin (Sigma). Mice were treated three days after tumour implantation. […] Tumour growth was monitored with microcalipers until tumour volume reached 17 mm in any one tumour from any group and all mice were sacrificed at the same end point. Dissected tumour volume was measured and mass was determined by weighing.
as §4, with “Primary tumours were dissociated into single cell suspension and seeded into a 96-well plate with 10 point-2 fold serial dilution starting from 2000 cells to 4 cells/well, 6 wells for each dilution per plate.” left out

GNS cells = experiment: Caspase 3/7 activity and cleaved PARP in treated GNS cells; assay type: cell-based, human
[6] = tested on: GNS cells (G362) subcutaneous tumour; experiment: Patient derived subcutaneous xenograft (G362); assay type: in vivo, mouse; conditions: 20 mg/kg i.p., five days on and two days off, vs vehicle
Description: All mouse procedures were approved by the Hospital for Sick Children's Animal Care Committee. To validate the in vivo effect of L-741,742 and PNU 96415E, 2×10^5 GNS cells in 200 μl of PBS and matrigel (1:1) were injected subcutaneously into flanks of non-obese diabetic/severe combined immunodeficient (NOD/SCID) female mice. 8 mice (2 tumours per mouse except for one mouse in control group that has one tumour) were maintained for each group; control (15 tumours), L-741,742 (16 tumours) and PNU 96415E (16 tumours). L-741,742 and PNU 96415E were dissolved in 40% 2 hydroxy β-cyclodextrin (Sigma). Mice were treated three days after tumour implantation. Both L-741,742 and PNU 96415E were injected (20 mg/kg) i.p for 5 days on two days off until the end point. Control group was injected with 40% 2 hydroxy β-cyclodextrin. Tumour growth was monitored with microcalipers until tumour volume reached 17 mm in any one tumour from any group and all mice were sacrificed at the same end point. Dissected tumour volume was measured and mass was determined by weighing.

[7] = tested on: non-NS control cells (BJ fibroblast, Daoy, U-2 0S, C8-D1A); experiment: Dose response cell viability in non-NS control cell lines; assay type: cell-based; conditions: highest concentration tested 50 μM
Description: as §1, §2, §3

[8] = dose response series 0.39-50 μM

## Br.Br.CN(CCc1ccc(Cl)c(Cl)c1)[C@@H]1CCCC[C@@H]1N1CCCC1 (racemic) [cis-(±)-N-Methyl-N-[2-(3,4-dichlorophenyl)ethyl]-2-(1-pyrrolidinyl)cyclohexamine 2HBr]
[1]; dose response series 0.39-50 μM, five days
  Fold selectivity towards GNS and NS cells compared to fibroblasts (IC50 of BJ/IC50 of any of the NS or GNS lines that showed the lowest IC50): 8 fold

## Cc1cccc(NC(=O)CN2CCC(c3ccccn3)CC2)c1 [A412997]
DRD4 receptor
  block of forskolin-induced cAMP response: 38%

## Cc1c(C2CCN(CCc3ccccc3)CC2)noc1-c1ccc(Cl)cc1 [L-741,742]
[2]
  levels of LC3B-II: increase
  LC3-II levels in the presence of chloroquine compared to control: did not increase
  autophagy substrate p62: accumulated
[3]
  reduction in frequency of colony forming cells in comparison to the control: 40-83 fold
[4]
  reduction of ERK1/2 phosphorylation compared to the untreated control: 40%
G362 cells
  lowest combination index (CI) value in combination with TMZ: 0.29
G481 cells
  lowest combination index (CI) value in combination with TMZ: 0.28
G411 and G362 cells
  effect on the cell cycle: G0/G1 arrest
[5]
  colony forming cell frequency, 1 in every x cells: 76 cells
GNS cells
  caspase 3/7 activity or cleaved PARP: no increase
[1]; [8]
  selectivity against GNS cells compared to NS cells: 8 fold
[1]
  IC50: 1.5 to 6.2 µM
[6]
  average tumour weight at the end point reduced by: 40.9%

## Clc1ccc(N2CCN(Cc3c[nH]c4ncccc34)CC2)cc1 [L-745,870]
[1]
  IC50: 3.1 to 6.2 µM

## Cl.Cl.Fc1ccc(N2CCN(CCC3OCCc4ccccc43)CC2)cc1 (centres unmarked) [PNU 96415E]
[2]
  levels of LC3B-II: increase
  LC3-II levels in the presence of chloroquine compared to control: did not increase
  autophagy substrate p62: accumulated
[7]
  sensitivity of non-NS control cells: not sensitive even at the highest concentration tested
[3]
  reduction in frequency of colony forming cells in comparison to the control: 19-29 fold
[4]
  reduction of ERK1/2 phosphorylation compared to the untreated control: 40%
G362 cells
  lowest combination index (CI) value in combination with TMZ: 0.56
G481 cells
  lowest combination index (CI) value in combination with TMZ: 0.32
G411 and G362 cells
  effect on the cell cycle: G0/G1 arrest
[5]
  colony forming cell frequency, 1 in every x cells: 43 cells
GNS cells
  caspase 3/7 activity or cleaved PARP: no increase
[1]; [8]
  selectivity against GNS cells compared to NS cells: 8 fold
[1]
  IC50: 6.25 µM
[6]
  average tumour weight at the end point reduced by: 44.3%

## Ifenprodil tartrate
[1]; [8]
  selectivity against GNS cells compared to NS cells: 8 fold

## PD168568
[1]
  IC50: 25 to 50 µM

Reference: patent US20170312274A1, “METHOD FOR TREATING A BRAIN TUMOUR” (The Hospital for Sick Children, priority 2014, published 2017)
